Source: EP0241291B1, “Aryl-substituted naphthyridine and pyridopyrazine derivatives” (SCHERING CORPORATION, priority 1986, dated 1987)

How the values were obtained:
[1] = test system: anaphylactic bronchospasm in sensitized guinea pigs; assay: Inhibition of anaphylactic bronchospasm in sensitized guinea pigs with antigen-induced bronchoconstriction; type: in vivo, male Hartley guinea pigs; details: Cavia porcellus, po; for ED50: 2 hours before challenge with ovalbumin, sensitized guinea pigs, read-out: ED50 (p.o.)-in anaphylactic bronchospasm test
Method: The compounds of this invention may be employed as anti-allergy agents in the treatment of, for example, asthma, allergic or seasonal rhinitis, and/or chronic bronchitis. The anti-allergy method of this invention is identified by tests which measure a compound's inhibition of anaphylactic bronchospasm in sensitized guinea pigs having antigen induced broncho-constriction.
In one such test procedure, male Hartley guinea pigs (250-300 g) are sensitized with 5 mg ovalbumin injected i.p. and 5 mg injected s.c. in 1 ml saline on day 1 and 5 mg ovalbumin injected i.p. on day 4. The sensitized animals are used 3-4 weeks later at which time they weigh 450-500 g.
The sensitized guinea pigs are fasted overnight and the following morning are anesthetized with 0.9 ml/kg i.p. of dialurethane (0.1 g/ml diallybarbituric acid, 0.4 g/ml ethylurea and 0.4 g/ml urethane). The trachea are cannulated and the animals are ventilated by a Harvard® rodent respirator at 50 strokes/minute with a stroke volume of 5 ml. A side arm to the tracheal cannula is connected to a pressure transducer (Harvard) to obtain a continuous measure of intratracheal pressure which is recorded on a polygraph (Harvard). The jugular vein is cannulated for the i.v. administration of substances. The animals are challenged with antigen (0.5% ovalbumin) as an aerosol generated from a DeVilbiss® Model 65 ultrasonic nebulizer and delivered through the tracheal cannula for 30 seconds. Bronchoconstriction is measured as the peak increase in intratracheal pressure occurring within 5 minutes after antigen challenge.
The sensitized guinea pigs are injected i.v. with 1 mg/kg propranolol, 5 mg/kg indomethacin and 2 mg/kg mepyramine given together in a volume of 1 ml/kg. Fifteen minutes later the animals are challenged with nebulized ovalbumin. Test compounds are administered orally 2 hours before challenge with ovalbumin. Suppression of anaphylactic bronchospasm is expressed as a percent inhibition of the peak increase in intratracheal pressure by comparison to a vehicle-treated control group.

[2] = test system: Reversed Passive Arthus Response; assay: Reversed Passive Arthus Response (RPAR), paw volume; type: in vivo, Male Lewis inbred albino rats; details: 25 mg/kg p.o. once daily for 3 days, rats; for Percent Inhibition vs. Control at 2 hrs.: paw volume 2 hours post-challenge; for Percent Inhibition vs. Control at 4 hrs.: paw volume 4 hours post-challenge
Excerpt: The compounds of this invention are also useful for the treatment of inflammation. Thus, they are useful in the treatment of arthritis, bursitis, tendonitis, gout and other physical conditions characterized by inflammation.
Reversed Passive Arthus Response (RPAR) Animals, Materials and Methods
Male Lewis inbred albino rats weighing 180-200 grams obtained from Charles River Breeding Laboratories are used in these experiments. The rats are housed 3 animals/cage and food and water are allowed ad libitum. The animals are numbered 1-3 in each cage and color marked for identification purposes.
All reagents and drugs are prepared just prior to the study. Crystallized and lyophilized bovine serum albumin (BSA), available from Sigma Chemical Company, is solubilized without shaking in cold, sterile, pyrogenfree saline (10 mg/ml). Lyophilized anti-bovine serum albumin (IgG fraction), obtained from Cappel Laboratories, is suspended in sterile distilled water and diluted with cold, pyrogen-free saline (PFS) just prior to use. The final concentration of anti-bovine serum albumin is 0.5. mg/ml of PFS. Both BSA and anti-BSA solutions are iced during use. Drugs are suspended or solubilized in an aqueous solution of methyl cellulose (MC) with an homogenizer just prior to administration.
Groups of animals (6/group) are dosed with drug in MC by gavage once daily for 3 days. The last dose is administered one hour prior to sensitization with BSA. Controls are given MC alone and a drug-standard is usually included in each assay for verification purposes. Drugs are prepared and diluted so as to provide a dose for a 200 gram animal which is equivalent to the mg/kg dose for each experiment. Thus each rat receives an oral dose in a volume of approximately 2.0 cc. One hour after the last dose the animals are lightly anesthetized with ether and "sensitized" by injection of 0.2 ml of PFS containing 1.0 mg of BSA into the penile vein. One hour later, the animals are "challenged" in the right rear paw with subplantar injections of […] PFS containing 0.1 mg of anti-BSA. Immediately after the subplantar injection, the right paw is dipped (up to the lateral maleolus) into the mercury well of a plethysmograph. The volume of mercury displaced is converted to weight and recorded. This value is considered to be the control reading for the animal. Paw volumes are subsequently recorded with a plethysmograph during the development of the inflammation at 2 and 4 hours post-challenge.
Results are expressed by the change in paw volume (Δ paw volume) from the control reading for each animal to that recorded 2 and 4 hours post-challenge. All drug treated groups are compared to the MC control for significant differences with an analysis of variance. Differences from control in drug-treated groups are expressed as percent change from control in Table II.

[3] = test system: GRAFT VS. HOST REACTION (GVHR); assay: Graft vs. host reaction (GVHR), spleen weight; type: in vivo, C57 B1/6XA/J(B6AF1) male mice; details: 10 mg/kg orally for 10 days; GVHR mice
Method: To induce a GVHR, C57 B1/6XA/J(B6AF1) male mice were injected intravenously with parental (C57B1/6J) spleen and lymph node cells. The compound 1,2,3,4-tetrahydro-7-phenyl-oxepino[2,3-c][1,8]-naphthyridin-6(7H)-one (Compound A) was then administered orally for 10 days beginning on the day prior to the cell transfer. On the day following the last treatment, the animals were sacrificed, and their spleens were excised and weighed. The enlargement of the spleen of the host is a result of a GVHR. To some extent it is the host's own cells which infiltrate and enlarge the spleen although they do this because of the presence of graft cells reacting against the host. The amount of spleen enlargement, splenonmegaly, is taken as a measure of the severity of the GVHR.
In carrying out the GVHR the animal in the experimental group is injected with parental cells, cells of the same species but of different genotyne, which cause a weight increase of the spleen. […] The effectiveness of Compound A adminstered to the mice in the experimental group is measured by comparing the spleen weight of the untreated and treated GVH animal with that of the syngeneic control. Compound A reduced spleen weight by 61% as compared to the untreated animals at a dose of 10 mg/kg.

[4] = test system: spleen weight; assay: Splenic atrophy test, decrease in spleen weight; type: in vivo; details: BDF₁ mice
Method: The immunosuppressive activity of the compounds may also be shown by a decrease in spleen weight after dosing BDF₁ mice orally with the drug for seven (7) consecutive days. The mice are sacrificed on the eighth day. The percent decrease in spleen weight is measured for each dosage level. In this procedure (Compound A) provided a 30% spleen weight decrease at a dosage level of 100 mg/kg.

[5] = test system: reverse passive Arthus reaction in the pleural cavity of rats; assay: Reverse passive Arthus reaction in the pleural cavity; type: in vivo; details: Rattus norvegicus, po, method of Myers et al., read-out: ED₅₀ reverse passive Arthus reaction in the pleural cavity

Row | Structure (SMILES) | ED50 [1] [mg/kg] | Percent Inhibition vs. Control at 2 hrs. [2] [%] | Percent Inhibition vs. Control at 4 hrs. [2] [%] | ED30 ([1]; sensitized guinea pigs having antigen-induced bronchoconstriction, read-out: ED₃₀ inhibition of anaphylactic bronchospasm) [mg/kg] | reduced spleen weight as compared to the untreated animals [3] [%] | spleen weight decrease ([4]; 100 mg/kg orally for seven consecutive days) [%] | ED30 ([4]; Mus musculus, oral, seven consecutive days, read-out: ED₃₀ in the splenic atrophy test) [mg/kg] | ED50 [5] [mg/kg]
1 | O=c1c2c(c3cccnc3n1-c1cccc(Cl)c1)CCCC2 [Compound 1, 5-(3-Chlorophenyl)-7,8,9,10-tetrahydro-benzo[c][1,8]-naphthyridin-6(5H)-one] | 2 | 64 | 30 | – | – | – | – | –
2 | O=c1c2c(c3cccnc3n1-c1ccccc1)CCCC2 [Compound 2, 7,8,9,10-Tetrahydro-5-phenyl-benzo[c][1,8]-naphthyridin-6-(5H)-one] | 2 | 75 | 29 | – | – | – | – | –
3 | O=c1c2c(c3cccnc3n1-c1cccc(Cl)c1)CCCCO2 [Compound 3, 7-(3-Chlorophenyl)-1,2,3,4-tetrahydro-oxepino[2,3-c][1,8]-naphthyridin-6(7H)-one] | 5 | – | – | – | – | – | – | –
4 | O=c1c2c(c3cccnc3n1-c1ccccc1)CCCCO2 [Compound 4, 1,2,3,4-tetrahydro-7-phenyl-oxepino[2,3-c][1,8]-naphthyridin-6(7H)-one] | 1 | 74 | 25 | ~0.5 | 61 | 30 | ~100 | ~4.5
